BindingDB's records for doi:10.1021/jm970499g (Novartis Institute For Medical Sciences, 1998)

Legend:
[1] = target: Substance-P receptor (rabbit); assay: In vitro binding affinity towards Tachykinin receptor 1 to displace [3H][Sar9Met(O2)11]-SP (1 nM) binding to rabbit whole brain membranes
[2] = target: Substance-P receptor (rabbit); assay: as above; remark: listed apart in the source

Row | Ki [1] [nM] | IC50 [2] [nM] | Structure (SMILES)
1 | 1280 | – | COc1ccccc1CNC(=S)N1CCC[C@H]1C(=O)N[C@H](Cc1ccccc1)C(=O)N(C)Cc1ccccc1
2 | 260 | – | COc1ccccc1CNC(=S)N1CCC[C@H]1C(=O)N[C@@H](Cc1ccccc1)C(=O)N(C)Cc1ccccc1
3 | – | > 50000 | COc1ccccc1CNC(=NC#N)N1CCC[C@H]1C(=O)NC(c1ccccc1)c1ccccc1 [1-[N-(2-Methoxy-benzyl)-N'-cyano-carbamimidoyl]-pyrrolidine-2-carboxylic acid benzhydryl-amide]
4 | – | > 5000 | COc1ccccc1CNC(=S)N1CCC[C@@H]1C(=O)NC(c1ccccc1)c1ccccc1 [(R)-1-(2-Methoxy-benzylthiocarbamoyl)-pyrrolidine-2-carboxylic acid benzhydryl-amide]
5 | – | > 50000 | Nc1ccccc1CNC(=S)N1CCC[C@H]1C(=O)NC(c1ccccc1)c1ccccc1 [(S)-1-(2-Amino-benzylthiocarbamoyl)-pyrrolidine-2-carboxylic acid benzhydryl-amide]
6 | 170 | – | O=C(NC(c1ccccc1)c1ccccc1)[C@@H]1CCCN1C(=S)NCc1ccccc1Br [(S)-1-(2-Bromo-benzylthiocarbamoyl)-pyrrolidine-2-carboxylic acid benzhydryl-amide]
7 | 170 | – | O=C(NC(c1ccccc1)c1ccccc1)[C@@H]1CCCN1C(=S)NCc1ccccc1Cl [(S)-1-(2-Chloro-benzylthiocarbamoyl)-pyrrolidine-2-carboxylic acid benzhydryl-amide]
8 | 1270 | – | O=C(NC(c1ccccc1)c1ccccc1)[C@@H]1CCCN1C(=S)NCc1ccccc1F [(S)-1-(2-Fluoro-benzylthiocarbamoyl)-pyrrolidine-2-carboxylic acid benzhydryl-amide]
9 | – | > 5000 | COc1ccccc1CNC(=S)N1CCC[C@H]1C(=O)NCC(c1ccccc1)c1ccccc1 [(S)-1-(2-Methoxy-benzylthiocarbamoyl)-pyrrolidine-2-carboxylic acid (2,2-diphenyl-ethyl)-amide]
10 | 330 | – | COc1ccccc1CNC(=S)N1CCC[C@H]1C(=O)NC(c1ccccc1)c1ccccc1 [(S)-1-(2-Methoxy-benzylthiocarbamoyl)-pyrrolidine-2-carboxylic acid benzhydryl-amide]
11 | – | > 50000 | COc1ccccc1CNC(=S)N1CCC[C@H]1C(=O)N(Cc1ccccc1)Cc1ccccc1 [(S)-1-(2-Methoxy-benzylthiocarbamoyl)-pyrrolidine-2-carboxylic acid dibenzylamide]
12 | – | > 5000 | O=C(NC(c1ccccc1)c1ccccc1)[C@@H]1CCCN1C(=S)NCc1ccccc1 [(S)-1-Benzylthiocarbamoyl-pyrrolidine-2-carboxylic acid benzhydryl-amide]
13 | – | > 50000 | COc1ccccc1COC(=O)N1CCC[C@H]1C(=O)NC(c1ccccc1)c1ccccc1 [(S)-2-(Benzhydryl-carbamoyl)-pyrrolidine-1-carboxylic acid 2-methoxy-benzyl ester]
